Measured values reported in patent publication US8614064B2, “Methods of diagnosing atherosclerosis by measuring ApoCI” (The Johns Hopkins University, priority 2003, dated 2013).

How the values were obtained:
acid sphingomyelinase = target: T1, acid sphingomyelinase (Homo sapiens, UniProt P17405); experiment: Acid sphingomyelinase activity in cultured human ASMC (specificity of GW4869); assay type: cell-based; conditions: with GW4869; control 400 nmol/mg protein; did not alter
T1 construct: acid sphingomyelinase activity (control: 400 nmol/mg protein; GW4869: 340 nmol/mg protein) in cultured human ASMC; host or cells: cultured human ASMC
T1 sequence (P17405 47-631): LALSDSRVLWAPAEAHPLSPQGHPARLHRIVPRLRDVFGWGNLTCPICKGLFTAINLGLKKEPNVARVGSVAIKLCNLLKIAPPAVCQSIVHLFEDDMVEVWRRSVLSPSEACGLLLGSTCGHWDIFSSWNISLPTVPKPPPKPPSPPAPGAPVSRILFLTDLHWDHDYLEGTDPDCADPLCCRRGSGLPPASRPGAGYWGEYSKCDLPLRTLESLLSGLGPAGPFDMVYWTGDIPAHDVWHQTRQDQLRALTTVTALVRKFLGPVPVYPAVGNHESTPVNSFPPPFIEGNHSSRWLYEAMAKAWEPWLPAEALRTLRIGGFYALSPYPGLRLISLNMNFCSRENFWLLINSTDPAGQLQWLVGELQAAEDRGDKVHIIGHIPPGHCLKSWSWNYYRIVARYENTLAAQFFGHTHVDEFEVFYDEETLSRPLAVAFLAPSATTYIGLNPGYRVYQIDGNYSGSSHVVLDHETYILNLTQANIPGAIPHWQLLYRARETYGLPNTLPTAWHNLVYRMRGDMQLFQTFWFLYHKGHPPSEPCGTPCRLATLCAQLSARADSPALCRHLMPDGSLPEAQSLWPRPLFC

ABC-A1 = experiment: Western measurement of ABC transporter ABCA1 level in AoSMC; assay type: cell-based, human; conditions: ApoCI-treated cells
Procedure: (§1) Confluent cultures of AoSMC were preincubated with serum-free medium for 30 min and then treated with ApoCI (2.5 μg/ml medium), HMS (58.8 μg apoA-I/ml medium and 6.2 μg ApoCI/ml medium), and C2-Ceramide (30 μM). At indicated time periods cells were harvested in PBS and pellets lysed in 10 mM HEPES buffer (pH 7.4) 5 mM EDTA, 0.25 mM EGTA, 50 mM NaF, 0.35 M sucrose, 0.1% Nonidet P-40 and protease inhibitors 2 μg/ml aprotinin, 10 μg/ml leupeptin, 5 μg/ml pepstatin, and 1 mM PMSF. Protein concentration was determined using BCA-kit (Pierce, Rockford, Ill.). 100 μg of protein was subjected to electrophoresis in denaturing conditions on 4-15% polyacrylamide gel and electro transferred onto nitrocellulose (BioRad, Rochester, N.Y.). After the transfer, membranes were blocked for 1 h at room temperature in TBS-T/5% milk. Western assay was performed using rabbit caveolin-I (1:1000), SR-BI (1:5000) or goat ABCA1 (1:1000) primary antibody (Santa Cruz Biotechnology, Santa Cruz, Calif.) and horseradish peroxidase-conjugated anti-rabbit or anti-goat antibody (Amersham Pharmacia Biotech, Piscataway, N.J.). Blots were developed using ECL^plus Western blotting detection reagents (Amersham Pharmacia Biotech) and were scanned by laser densitometry. The intensity of the signals were quantified with the ImageGuant program (Molecular Dynamic, Sunnyvale, Calif.).

SR-BI = experiment: Western measurement of scavenger receptor BI level in AoSMC; assay type: cell-based, human; conditions: ApoCI-treated cells
Procedure: as §1

[1] = target: T2, lecithin cholesterol acyl transferase (Homo sapiens, UniProt P04180); conditions: % of that of apoA-I; Soutar et al. 1975; cited from earlier work
T2 sequence (P04180 25-440): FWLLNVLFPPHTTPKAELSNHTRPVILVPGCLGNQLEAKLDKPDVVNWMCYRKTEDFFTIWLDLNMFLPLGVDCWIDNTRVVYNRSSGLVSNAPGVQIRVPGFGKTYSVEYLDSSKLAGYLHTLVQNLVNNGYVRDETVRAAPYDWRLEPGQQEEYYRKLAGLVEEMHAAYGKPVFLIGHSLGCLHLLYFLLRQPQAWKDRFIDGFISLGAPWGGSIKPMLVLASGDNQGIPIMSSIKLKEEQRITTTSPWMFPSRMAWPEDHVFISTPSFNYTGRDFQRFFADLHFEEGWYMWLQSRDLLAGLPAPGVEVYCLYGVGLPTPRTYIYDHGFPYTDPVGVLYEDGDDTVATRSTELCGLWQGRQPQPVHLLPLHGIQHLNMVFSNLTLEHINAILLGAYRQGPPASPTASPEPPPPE

Compound	acid sphingomyelinase activity (acid sphingomyelinase) [nmol/mg protein]	cellular level of the ATP binding cassette (ABC-A1) protein (ABC-A1)	cellular level of the scavenger receptor binding protein (SR-BI) (SR-BI)	stimulation of lecithin cholesterol acyl transferase relative to apolipoprotein A-I [1] [%]
O=C(/C=C/c1ccc(/C=C/C(=O)Nc2ccc(C3=NCCN3)cc2)cc1)Nc1ccc(C2=NCCN2)cc1 [GW4869]	340	–	–	–
Apolipoprotein C-I (TPDVSSALDKLKEFGNTLEDKARELISRIKQSELSAKMREWFSETFQKVKEKLKIDS; UniProt P02654 27-83, looked up) [ApoCI, 6.6-kDa single-chain plasma protein of 57 amino acids; purified human ApoCI purchased from Academy Bio-Medical Company]	–	transiently and significantly decreased	transiently and significantly decreased	~80
